Experimental data reported in PMC7794376 (Nature Communications, 2021).
Values joined by “and” are separate entries in the source; they are usually repeats but may differ in a detail not shown here. Equal values may be shown once.

Assays:
human CoaB (HCoaB) = human CoaB (HCoaB) (Homo sapiens, UniProt Q9HAB8); assay: EnzChek pyrophosphate assay, HCoaB; assay type: biochemical
[1] = test system: M. tuberculosis coaBC Tet-OFF conditional knockdown; assay type: cell-based, Mycobacterium tuberculosis; details: GAST/Fe minimal media
MtbCoaBC [2] = biological target: T1, MtbCoaBC (Mycobacterium tuberculosis, UniProt P9WNZ1); assay: Competition assays, first half of CoaB reaction (EnzChek, variable CTP or PPA); assay type: biochemical; details: for mode of inhibition: in words
MsmCoaBC = MsmCoaBC (Mycolicibacterium smegmatis, UniProt A0QWT2); assay: EnzChek pyrophosphate assay, CoaB activity of MsmCoaBC; assay type: biochemical, Mycobacterium smegmatis; details: for Activity: slope of absorbance at 360 nm vs time (s); for inhibition, IC50 MsmCoaBC 2b / reaction rate (slope of absorbance at 360 nm over time), IC50 MsmCoaBC 2b / remaining activity relative to control, IC50 MsmCoaBC 2b: triplicate
Method: The commercially available EnzChek pyrophosphate assay kit (E-6645) (Life Technologies) was used for this assay. […] In the assays with HCoaB an enzyme concentration of 1 µM was used instead. […] Assays were performed on either a CLARIOstar or PHERAstar microplate reader (BMG Labtech) in 96-well plates (Greiner). A substrate mixture containing the substrates and the inhibitor was pre-incubated at 25 °C for 10 min. An enzyme solution was prepared and separately pre-incubated at 25 °C for 10 min. The reaction was initiated by the addition of the substrates to the solution containing the enzyme to a final volume of 75 µL. Enzymatic activity was monitored by following the absorbance at 360 nm for 30 min (100 cycles/20 s each cycle) and only the steady-state region of the assay was used for data analysis. Assays were performed in triplicates, including a negative control (lacking PPA) and a positive control (lacking inhibitor).

MtbCoaBC [3] = biological target: T1, MtbCoaBC; assay: biochemical; assay type: biochemical; details: 0.015625 uM 2b; replicate R1; read-out: Inhibition % R1
[4] = 0.015625 uM 2b, relative to average DMSO CT, replicates R1-R3
[5] = 0.015625 uM 2b, replicates R1-R3
[6] = 0.03125 uM 2b, relative to average DMSO CT, replicates R1-R3
[7] = 0.03125 uM 2b, replicates R1-R3
[8] = 0.0625 uM 2b, relative to average DMSO CT, replicates R1-R3
[9] = 0.25 uM 2b, relative to average DMSO CT, replicates R1-R3
[10] = 0.5 uM 2b, relative to average DMSO CT, replicates R1-R3
[11] = inhibitor concentration 1 (log 0; unit not given)
[12] = inhibitor concentration 2 (log 0.30103; unit not given)

Chain of MsmCoaBC (A0QWT2 whole entry): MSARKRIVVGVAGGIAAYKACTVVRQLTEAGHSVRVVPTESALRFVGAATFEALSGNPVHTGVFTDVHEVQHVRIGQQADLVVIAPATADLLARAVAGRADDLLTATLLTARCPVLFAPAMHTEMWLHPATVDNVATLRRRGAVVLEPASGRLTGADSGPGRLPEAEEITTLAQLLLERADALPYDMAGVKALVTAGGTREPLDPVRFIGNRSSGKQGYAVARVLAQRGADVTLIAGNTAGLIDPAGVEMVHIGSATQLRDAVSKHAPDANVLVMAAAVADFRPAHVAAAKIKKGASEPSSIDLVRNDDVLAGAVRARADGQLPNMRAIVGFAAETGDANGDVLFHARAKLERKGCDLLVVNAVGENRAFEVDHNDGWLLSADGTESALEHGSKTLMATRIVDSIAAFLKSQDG
T1 sequence (P9WNZ1 whole entry): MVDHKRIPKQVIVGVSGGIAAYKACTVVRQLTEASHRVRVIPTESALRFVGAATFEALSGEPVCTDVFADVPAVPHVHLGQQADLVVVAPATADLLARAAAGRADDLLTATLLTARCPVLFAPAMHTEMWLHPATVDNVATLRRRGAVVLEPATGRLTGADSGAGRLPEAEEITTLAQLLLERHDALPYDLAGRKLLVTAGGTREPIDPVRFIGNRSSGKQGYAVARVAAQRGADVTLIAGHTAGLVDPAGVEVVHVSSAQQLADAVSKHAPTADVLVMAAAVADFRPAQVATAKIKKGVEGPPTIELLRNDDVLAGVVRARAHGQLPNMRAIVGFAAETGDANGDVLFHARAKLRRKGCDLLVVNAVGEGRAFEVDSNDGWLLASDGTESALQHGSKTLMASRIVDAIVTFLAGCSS
Chain of human CoaB (HCoaB) (Q9HAB8 whole entry): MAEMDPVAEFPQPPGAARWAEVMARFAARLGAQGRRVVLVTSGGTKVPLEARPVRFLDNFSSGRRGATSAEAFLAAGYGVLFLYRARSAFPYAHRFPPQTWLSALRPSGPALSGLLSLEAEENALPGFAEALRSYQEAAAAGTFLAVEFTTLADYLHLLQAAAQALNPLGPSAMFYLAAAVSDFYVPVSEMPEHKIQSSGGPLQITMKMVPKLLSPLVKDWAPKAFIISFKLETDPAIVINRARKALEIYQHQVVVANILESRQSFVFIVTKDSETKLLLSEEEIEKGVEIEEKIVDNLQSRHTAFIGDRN

O=c1cc(-c2ccc(O)c(O)c2)oc2cc(O)c(O)cc12 [compound 2b]
IC50 (human CoaB (HCoaB); 1 µM enzyme, average of three independent experiments ± SD): 60000 ± 7000 nM
activity at 3.125 µM (human CoaB (HCoaB); 3.125 uM compound, HCoaB, relative to average DMSO CT, replicates R1-R3): 96.1%
Activity % (human CoaB (HCoaB); 3.125 uM compound, HCoaB, relative to average DMSO CT, replicates R1-R3, 3.125 µM): 99.35% and 93.21%
Inhibition % (human CoaB (HCoaB); 3.125 uM compound, HCoaB, replicates R1-R3, 3.125 µM): 0.65% and 6.79% and 3.88%
activity at 6.25 µM (human CoaB (HCoaB); 6.25 uM compound, HCoaB, relative to average DMSO CT, replicates R1-R3): 97.4%
Activity % (human CoaB (HCoaB); 6.25 uM compound, HCoaB, relative to average DMSO CT, replicates R1-R3, 6.25 µM): 94.68% and 99.68%
Inhibition % (human CoaB (HCoaB); 6.25 uM compound, HCoaB, replicates R1-R3, 6.25 µM): 5.32% and 0.32% and 2.58%
activity at 25 µM (human CoaB (HCoaB); 25 uM compound, HCoaB, relative to average DMSO CT, replicates R1-R3): 66.3%
Activity % (human CoaB (HCoaB); 25 uM compound, HCoaB, relative to average DMSO CT, replicates R1-R3, 25 µM): 70.2% and 69.67%
inhibition at 25 µM (human CoaB (HCoaB); 25 uM compound, HCoaB, replicates R1-R3): 29.8%
Inhibition % (human CoaB (HCoaB); 25 uM compound, HCoaB, replicates R1-R3, 25 µM): 30.33% and 33.67%
activity at 50 µM (human CoaB (HCoaB); 50 uM compound, HCoaB, relative to average DMSO CT, replicates R1-R3): 59%
Activity % (human CoaB (HCoaB); 50 uM compound, HCoaB, relative to average DMSO CT, replicates R1-R3, 50 µM): 54.55% and 56.86%
inhibition at 50 µM (human CoaB (HCoaB); 50 uM compound, HCoaB, replicates R1-R3): 45.5%
Inhibition % (human CoaB (HCoaB); 50 uM compound, HCoaB, replicates R1-R3, 50 µM): 43.14% and 41.04%
activity at 100 µM (human CoaB (HCoaB); 100 uM compound, HCoaB, relative to average DMSO CT, replicates R1-R3): 38%
Activity % (human CoaB (HCoaB); 100 uM compound, HCoaB, relative to average DMSO CT, replicates R1-R3, 100 µM): 40.03% and 34.07%
inhibition at 100 µM (human CoaB (HCoaB); 100 uM compound, HCoaB, replicates R1-R3): 60%
Inhibition % (human CoaB (HCoaB); 100 uM compound, HCoaB, replicates R1-R3, 100 µM): 65.93% and 62.02%
sensitisation on incremental silencing of CoaBC [1]: did not sensitise M. tuberculosis further
mode of inhibition (MtbCoaBC [2]; relative to CTP): mixed inhibition
mode of inhibition (MtbCoaBC [2]; relative to PPA): uncompetitive inhibition
Inibition type (MtbCoaBC [2]; variable substrate CTP): Mixed
Ki (MtbCoaBC [2]; variable substrate CTP): 93 ± 18 nM
IC50 (MsmCoaBC): 180 ± 20 nM
Activity % (MsmCoaBC; [4]): 94.35% and 94.28%
activity at 0.015625 µM (MsmCoaBC; [4]): 95.3%
Inhibition % (MsmCoaBC; [5]): 5.72% and 4.75%
inhibition at 0.015625 µM (MsmCoaBC; [5]): 5.65%
Activity (MsmCoaBC; [5]): 0.0002955 and 0.0002927 and 0.0002925
Activity % (MsmCoaBC; [6]): 88.08% and 86.2%
activity at 0.03125 µM (MsmCoaBC; [6]): 89.5%
Inhibition % (MsmCoaBC; [7]): 13.80% and 10.50%
inhibition at 0.03125 µM (MsmCoaBC; [7]): 11.9%
Activity (MsmCoaBC; [7]): 0.0002776 and 0.0002732 and 0.0002674
Activity % (MsmCoaBC; [8]): 71.12% and 70.67%
activity at 0.0625 µM (MsmCoaBC; [8]): 74.4%
Inhibition % (MsmCoaBC; 0.0625 uM 2b, replicates R1-R3): 29.33% and 25.59%
inhibition at 0.0625 µM (MsmCoaBC; 0.0625 uM 2b, replicates R1-R3): 28.9%
Activity (MsmCoaBC; 0.0625 uM 2b, replicates R1-R3): 0.0002308 and 0.0002206 and 0.0002192
Activity % (MsmCoaBC; [9]): 41.76% and 47.03%
activity at 0.25 µM (MsmCoaBC; [9]): 45.6%
Inhibition % (MsmCoaBC; 0.25 uM 2b, replicates R1-R3): 52.97% and 54.45%
inhibition at 0.25 µM (MsmCoaBC; 0.25 uM 2b, replicates R1-R3): 58.2%
Activity (MsmCoaBC; 0.25 uM 2b, replicates R1-R3): 0.0001413 and 0.0001296 and 0.0001459
Activity % (MsmCoaBC; [10]): 29.05% and 29.76%
activity at 0.5 µM (MsmCoaBC; [10]): 30.5%
Inhibition % (MsmCoaBC; 0.5 uM 2b, replicates R1-R3): 70.24% and 69.54%
inhibition at 0.5 µM (MsmCoaBC; 0.5 uM 2b, replicates R1-R3): 71%
Activity (MsmCoaBC; 0.5 uM 2b, replicates R1-R3): 0.000094507 and 0.000090122 and 0.000092326
inhibition, IC50 MsmCoaBC 2b (MsmCoaBC; [11]): 88.05 and 84.53 and 91.37
reaction rate (slope of absorbance at 360 nm over time), IC50 MsmCoaBC 2b (MsmCoaBC; [11]): 0.000026783 and 0.000037077 and 0.000047977
remaining activity relative to control, IC50 MsmCoaBC 2b (MsmCoaBC; [11]): 8.633 and 11.95 and 15.47
inhibition, IC50 MsmCoaBC 2b (MsmCoaBC; [12]): 96.00 and 96.49 and 94.20
reaction rate (slope of absorbance at 360 nm over time), IC50 MsmCoaBC 2b (MsmCoaBC; [12]): 0.000017982 and 0.000012403 and 0.000010882
remaining activity relative to control, IC50 MsmCoaBC 2b (MsmCoaBC; [12]): 5.796 and 3.998 and 3.508
inhibition at 0.015625 µM (MtbCoaBC [3]): 8.08%
